# Laboratory results as given in patent publication US20080242663A1, “NOVEL PYRIMIDINE DERIVATIVES 698” (ASTRAZENECA AB, priority 2007, published 2008).
# Target: T1, recombinant EphB4 (Homo sapiens, UniProt P54760)
# T1 construct: amino acids 563-987; Swiss-Prot Acc; No. P54760; purchased ProQinase GmbH 0178-0000-3
# T1 sequence (P54760 563-987): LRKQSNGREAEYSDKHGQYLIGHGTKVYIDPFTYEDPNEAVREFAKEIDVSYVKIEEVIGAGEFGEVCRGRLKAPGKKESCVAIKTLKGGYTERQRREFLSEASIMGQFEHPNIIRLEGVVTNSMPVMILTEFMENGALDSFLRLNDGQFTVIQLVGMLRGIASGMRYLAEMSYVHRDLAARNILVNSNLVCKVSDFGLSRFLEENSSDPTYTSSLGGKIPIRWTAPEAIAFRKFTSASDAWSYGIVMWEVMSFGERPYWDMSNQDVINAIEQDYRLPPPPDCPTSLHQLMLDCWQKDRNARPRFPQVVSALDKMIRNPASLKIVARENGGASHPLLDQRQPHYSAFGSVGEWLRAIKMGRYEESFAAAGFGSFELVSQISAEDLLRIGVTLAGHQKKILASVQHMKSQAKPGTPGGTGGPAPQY
# Test: In vitro EphB4 enzyme assay (Alphascreen)
# Type: biochemical
# Outline: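 Recombinant EphB4 phosphorylated biotin-poly-GAT with Mg-ATP for 1 hr at room temperature; EDTA stop, then Alphascreen donor/acceptor (anti-phosphotyrosine) beads for 20 hrs in the dark. After minimum subtraction, signal plotted against compound concentration to derive IC50.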
row,Compound,IC50 [µM]
1,"COCCNC(=O)c1cc(Nc2nccc(N(C)c3cccc(Cl)c3)n2)cc(N2CCOCC2)c1 [Example 19.18, 3-[[4-[(3-chlorophenyl)-methyl-amino]pyrimidin-2-yl]amino]-N-(2-methoxyethyl)-5-morpholin-4-yl-benzamide]",0.614
2,"CN(c1cccc(Cl)c1)c1ccnc(Nc2cc(C(=O)NC(C)(C)CO)cc(N3CCOCC3)c2)n1 [Example 19.19, 3-[[4-[(3-chlorophenyl)-methyl-amino]pyrimidin-2-yl]amino]-N-(1-hydroxy-2-methyl-propan-2-yl)-5-morpholin-4-yl-benzamide]",1.05
3,"CN(c1cccc(Cl)c1)c1ccnc(Nc2cc(C(=O)NC(C)(C)C)cc(N3CCOCC3)c2)n1 [Example 19.20, 3-[[4-[(3-chlorophenyl)-methyl-amino]pyrimidin-2-yl]amino]-5-morpholin-4-yl-N-tert-butyl-benzamide]",3.09
4,"C[C@@H](CO)NC(=O)c1cc(Nc2nccc(N(C)c3cccc(Cl)c3)n2)cc(N2CCOCC2)c1 [Example 19.21, 3-[[4-[(3-chlorophenyl)-methyl-amino]pyrimidin-2-yl]amino]-N-[(2S)-1-hydroxypropan-2-yl]-5-morpholin-4-yl-benzamide]",0.527
5,"C[C@H](CO)NC(=O)c1cc(Nc2nccc(N(C)c3cccc(Cl)c3)n2)cc(N2CCOCC2)c1 [Example 19.23, 3-[[4-[(3-chlorophenyl)-methyl-amino]pyrimidin-2-yl]amino]-N-[(2R)-1-hydroxypropan-2-yl]-5-morpholin-4-yl-benzamide]",1.31
6,"COc1cccc(N(c2ccnc(Nc3cc(N4CCOCC4)cc(N4CCOCC4)c3)n2)C(C)C)c1 [Example 20, N2-(3,5-dimorpholinophenyl)-N4-isopropyl-N4-(3-methoxyphenyl)pyrimidine-2,4-diamine]",0.912

# Further compounds by falling IC50, results first:
row,IC50 [µM],Compound
1,2.83,"CC(C)CNC(=O)c1cc(Nc2nccc(N(C)c3cccc(Cl)c3)n2)cc(N2CCOCC2)c1 [Example 19.17, 3-[[4-[(3-chlorophenyl)-methyl-amino]pyrimidin-2-yl]amino]-N-(2-methylpropyl)-5-morphohn-4-yl-benzamide]"
2,1.97,"CN(c1cccc(Cl)c1)c1ccnc(Nc2cc(C(=O)NCC3CC3)cc(N3CCOCC3)c2)n1 [Example 19.16, 3-[[4-[(3-chlorophenyl)-methyl-amino]pyrimidin-2-yl]amino]-N-(cyclopropylmethyl)-5-morpholin-4-yl-benzamide]"
3,1.86,"COc1ccc(C)c(N(c2ccnc(Nc3cc(N4CCOCC4)cc(N4CCOCC4)c3)n2)C(C)C)c1 [Example 22.2, N-(3,5-dimorpholin-4-ylphenyl)-N′-(5-methoxy-2-methyl-phenyl)-N′-propan-2-yl-pyrimidine-2,4-diamine]"
4,1.48,"COCCN(c1ccnc(Nc2cc(N3CCOCC3)cc(N3CCOCC3)c2)n1)c1cc(OC)ccc1C [Example 22.1, N-(3,5-dimorpholin-4-ylphenyl)-N′-(2-methoxyethyl)-N′-(5-methoxy-2-methyl-phenyl)pyrimidine-2,4-diamine]"
5,1,"CN(c1cccc(Cl)c1)c1ccnc(Nc2cc(C(=O)NC3CCOCC3)cc(N3CCOCC3)c2)n1 [Example 19.24, 3-[[4-[(3-chlorophenyl)-methylamino]pyrimi-din-2-yl]amino]-5-morpholin-4-yl-N-(oxan-4-yl)benzamide]"
6,0.875,"CCNC(=O)c1cc(Nc2nccc(N(C)c3cccc(Cl)c3)n2)cc(N2CCOCC2)c1 [Example 19.25, 3-[[4-[(3-chlorophenyl)-methylamino]pyrimidin-2-yl]amino]-N-ethyl-5-morpholin-4-ylbenzamide]"
7,0.119,"CN(c1cccc(Cl)c1)c1ccnc(Nc2cc(C(=O)N3CC[C@@H](O)C3)cc(N3CCOCC3)c2)n1 [Example 19.22, [3-[[4-[(3-chlorophenyl)-methyl-amino]pyrimidin-2-yl]amino]-5-morpholin-4-yl-phenyl]-[(3R)-3-hydroxypyrrolidin-1-yl]methanone]"
8,0.025,Cc1ccc(CO)cc1N(CCO)c1ccnc(Nc2cc(N3CCOCC3)cc(N3CCOCC3)c2)n1 [Example 21.3]
